Counter-ions that a name gives are not always drawn.
biological target: T1, MLK3 (Homo sapiens, UniProt Q16584); experiment: Radiometric filter plate MLK3 assay; format: biochemical; conditions: read-out: MK3 IC50; note: 2 µM cold ATP (Km)
T1 construct: purchased Dundee DU8313
Method: After a twenty minute incubation, the reactions were washed through filter plates and read on a scintillation counter. Results are shown in Table 10 below, in which +++ indicates ≦0.1 μM, ++ indicates >0.1 μM and ≦1 μM, and + indicates >1 μM.

T1 sequence (Q16584 whole entry): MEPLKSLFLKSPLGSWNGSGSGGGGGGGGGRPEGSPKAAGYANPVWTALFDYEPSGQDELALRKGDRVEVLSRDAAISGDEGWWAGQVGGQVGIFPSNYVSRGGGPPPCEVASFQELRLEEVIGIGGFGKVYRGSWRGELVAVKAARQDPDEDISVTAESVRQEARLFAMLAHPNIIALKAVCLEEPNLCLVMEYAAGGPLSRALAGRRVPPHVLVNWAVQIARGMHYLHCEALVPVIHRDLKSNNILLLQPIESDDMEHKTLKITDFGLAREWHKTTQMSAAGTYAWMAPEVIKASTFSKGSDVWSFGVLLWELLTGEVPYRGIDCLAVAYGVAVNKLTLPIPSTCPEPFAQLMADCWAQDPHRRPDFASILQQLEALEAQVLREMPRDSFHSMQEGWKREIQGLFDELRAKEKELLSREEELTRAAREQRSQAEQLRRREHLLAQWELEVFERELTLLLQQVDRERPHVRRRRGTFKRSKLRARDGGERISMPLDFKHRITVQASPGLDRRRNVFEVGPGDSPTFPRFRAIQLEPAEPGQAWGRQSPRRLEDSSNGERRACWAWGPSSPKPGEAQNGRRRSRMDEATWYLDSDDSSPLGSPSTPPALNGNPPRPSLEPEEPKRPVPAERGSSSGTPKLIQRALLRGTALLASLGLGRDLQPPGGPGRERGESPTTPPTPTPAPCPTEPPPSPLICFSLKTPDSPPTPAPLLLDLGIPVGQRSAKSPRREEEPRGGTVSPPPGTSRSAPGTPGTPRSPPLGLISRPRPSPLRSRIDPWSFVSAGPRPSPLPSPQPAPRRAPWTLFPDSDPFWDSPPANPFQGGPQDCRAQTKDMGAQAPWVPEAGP

IC50 [nM] | Structure (SMILES)
< 100 | [2H]c1cc2cc(-c3c[nH]c4ncc(-c5ccc(CN6CCN(C)CC6)cc5)cc34)ccc2[nH]1 [Example 206]
> 1000 | CN1CCN(c2cc(-c3cnc4[nH]c(=O)n(-c5ccc6[nH]ccc6c5)c4n3)ccn2)CC1 [Example 66, 1-(1H-indol-5-yl)-6-(2-(4-methylpiperazin-1-yl)pyridin-4-yl)-1H-imidazo[4,5-b]pyrazin-2(3H)-one]
< 100 | CC(C)(C)OC(=O)N1CCN(Cc2ccc(-c3cnc4[nH]cc(-c5ccc6[nH]ccc6c5)c4c3)cc2)CC1 [Example 144, 4-{4-[3-(1H-indol-5-yl)-1H-pyrrolo[2,3-b]pyridin-5-yl]-benzyl}-piperazine-1-carboxylic acid tert-butyl ester]
< 100 | COc1cc(-c2cnc3[nH]cc(-c4ccc5c(ccn5C)c4)c3c2)cc(OC)c1OC [Example 24, 3-(1-methyl-1H-indol-5-yl)-5-(3,4,5-trimethoxyphenyl)-1H-pyrrolo[2,3-b]pyridine]
< 100 | NC(=O)c1ccc(-c2c[nH]c3ncc(-c4ccc(C(=O)N5CCNCC5)cc4)cc23)cc1 [Example 149, 4-{5-[4-(piperazine-1-carbonyl)-phenyl]-1H-pyrrolo[2,3-b]pyridin-3-yl}-benzamide, hydrochloride salt]
< 100 | CN1CCN(Cc2cccc(-c3cnc4[nH]cc(-c5ccc6[nH]ccc6c5)c4c3)c2)CC1=O [Example 143, 4-{3-[3-(1H-indol-5-yl)-1H-pyrrolo[2,3-b]pyridin-5-yl]-benzyl}-1-methyl-piperazin-2-one]
< 100 | COc1cc(-c2cnc3[nH]cc(-c4ccc(N(C)C)nc4)c3c2)cc(OC)c1OC [Example 19, N,N-dimethyl-5-(5-(3,4,5-trimethoxyphenyl)-1H-pyrrolo[2,3-b]pyridin-3-yl)pyridin-2-amine]

Continued, molecule first:

Structure (SMILES) | IC50 [nM]
COc1ccc(-n2c(=O)[nH]c3ncc(-c4ccc(O)cc4)nc32)cc1 [Example 70, 6-(4-hydroxyphenyl)-1-(4-methoxyphenyl)-1H-imidazo[4,5-b]pyrazin-2(3H)-one] | > 1000
COc1cc(-c2cnc3[nH]c(=O)n(-c4ccc5[nH]ccc5c4)c3n2)cc(OC)c1O [Example 62, 6-(4-hydroxy-3,5-dimethoxyphenyl)-1-(1H-indol-5-yl)-1H-imidazo[4,5-b]pyrazin-2(3H)-one] | < 100
COc1cc(-c2cnc3c(c2)C(=Cc2ccccc2)C(=O)N3)cc(OC)c1OC [Example 130, 3-benzylidene-5-(3,4,5-trimethoxy-phenyl)-1,3-dihydro-pyrrolo[2,3-b]pyridin-2-one] | > 1000
O=c1[nH]c2ncc(-c3ccc(O)cc3)nc2n1CC1CC1 [Example 81, 1-(cyclopropylmethyl)-6-(4-hydroxyphenyl)-1H-imidazo[4,5-b]pyrazin-2(3H)-one] | > 1000
COc1cc(-c2cnc3[nH]c(=O)n(-c4ccc(N5CCOCC5)nc4)c3n2)cc(OC)c1OC [Example 109, 1-(6-morpholinopyridin-3-yl)-6-(3,4,5-trimethoxyphenyl)-1H-imidazo[4,5-b]pyrazin-2(3H)-one] | > 1000
COc1cc(-c2cnc3c(c2)C(=Cc2ccc(C#N)cc2)C(=O)N3)cc(OC)c1OC [Example 133, 4-[2-oxo-5-(3,4,5-trimethoxy-phenyl)-1,2-dihydro-pyrrolo[2,3-b]pyridin-3-ylidenemethyl]-benzonitrile] | > 1000
O=c1[nH]c2ncc(-c3ccncc3)nc2n1C1CCCC1 [Example 77, 1-cyclopentyl-6-(pyridin-4-yl)-1H-imidazo[4,5-b]pyrazin-2(3H)-one] | > 1000
COc1cc(-c2cnc3c(c2)C(Cc2ccncc2)C(=O)N3)cc(OC)c1OC (stereo not shown) [Example 136, 3-pyridin-4-ylmethyl-5-(3,4,5-trimethoxy-phenyl)-1,3-dihydro-pyrrolo[2,3-b]pyridin-2-one] | > 1000
COc1cc(-c2cnc3c(c2)C(=Cc2cccc(C(N)=O)c2)C(=O)N3)cc(OC)c1OC [Example 132, 3-[2-oxo-5-(3,4,5-trimethoxy-phenyl)-1,2-dihydro-pyrrolo[2,3-b]pyridin-3-ylidenemethyl]-benzamide] | > 1000
